In patent US20260021122A1, “CANNABINOIDS AND USES THEREOF IN TREATMENT OF A DISEASE” (TECHNION RESEARCH & DEVELOPMENT FOUNDATION LIMITED, priority 2022, published 2026):

What was measured:
B16F10 tumors = assay: Mouse tumor model: B16F10 cells transplanted subcutaneously, tumor volume and weight; assay type: in vivo, mice; settings: CBG 2.5 mg/kg or 3704 3.75 mg/kg intraperitoneally
Experimental: All procedures involving animals were conducted in accordance with the standards approved by the Technion Animal Care and Use Ethics Committee and the studies adhered to the Technion Code for Experimentation on Animals. To induce tumors, B16F10 cells grown to a confluency of ˜75% were resuspended to a concentration of 1×10^6 cells in 200 ul sterile PBS and transplanted subcutaneously into the right flank of 8-10-week-old female WT C57B6/L mice (Envigo, 16.8±0.78 g). After either 24 hours or 3 days, mice were randomly divided into groups and treated as indicated with either a vehicle of Cannabis extract solvent (18:1:1 ratio of DDW+0.9% NaCl, Sigma, Cat #S7653; Cremophor® EL, Cat #238470; Ethanol, Sigma, #Cat 111727), CAN (100 mg/kg), synthetic CBG (2.5 mg/kg) or 3704 (3.75 mg/kg) for 5 days, then 2 days off and again for 4 days. Tumor volume was measured from day 10 to 14 (endpoint) using a vernier caliper and calculated according to the formula […] and all tumors were weighed at the endpoint of the experiments with an analytical scale.

CSF-1 [1] = assay: ELISA of secreted CSF-1 in media of B16F10 cells; assay type: cell-based, murine; settings: summary statement of the discussion
Experimental: (§1) The media from B16F10 and A375 cell lines, or homogenates from B16F10 tumors, that were treated as indicated for 24 hours, were collected and the protein concentration of MCP-1, MIP-2, C-C Motif Chemokine Ligand 5 (CCL5), and CSF-1 were measured by Quantikine Mouse M-CSF Immunoassay solid-phase ELISA kit (R&D systems, Cat #MMC00) as described in the manufacture's protocol.

CSF-1 [2] = assay: ELISA of secreted CSF-1 in media of A375 cells; assay type: cell-based, human; settings: 1.5 μg/ml CBG, 2 μg/ml 3704, 6 μg/ml CAN
Experimental: as §1

CSF-1 [3] = assay: CSF-1 protein levels in B16F10 cells by confocal microscopy and western blot; assay type: cell-based, murine; settings: 1.5 μg/ml CBG or 2 μg/ml 3704, 24 hours, both methods
Experimental: B16F10 cells were seeded on 13 mm coverslips (Bar Naor Ltd., Cat #BN1001-13-1CN) and treated with either synthetic CBG or Cannabis extract 3704 for 24 hours. Then, cells were fixed at room temperature with 4% PFA (Electron Microscopy Sciences, Cat #15710) in PBS (Sartorius, Cat #02-023-1A) for 20 minutes, permeabilized by 0.3% Triton-100× (Sigma, Cat #T8787) in PBS for 10 minutes and Blocked with a solution containing 5% Normal Goat Serum (Abcam, Cat #ab7481), 0.25% Gelatin (Sigma-Aldrich, Cat #G7041) and 0.1% Triton-X100 in PBS for 1 hour. […] Analysis was conducted using the IMARIS software and results were calculated using the formula: mean AF-488 intensity divided by the number of nuclei.
B16F10 cells, and sorted MO-MDSC and PMN-MDSC achieved as described, were lysed in RIPA buffer (Sigma, Cat #R0278) supplemented with Protease/Phosphatase Inhibitor Cocktail (Cell signaling, Cat #5872S) on ice for 20 minutes. Total protein concentrations were measured using the detergent-compatible protein assay (Bio-Rad, Cat #5000113 and 5000114) and equal amounts were loaded onto a 4%-20% gradient gel (Invitrogen, Cat #XPO4202) and semidry transferred into a nitrocellulose membrane (Bio-Rad, Cat #1704159). […]

CD8+ T-cells = assay: BM-MDSCs CD8+ T-cell co-culture suppression assay; assay type: cell-based, mice
Experimental: Generated bone marrow-MDSC (BM-MDSCs) were treated with conditioned media for 24 hours, then sorted into MO-MDSC and PMN-MDSC subsets. Concurrently, CD8+ T-cells were isolated from the spleens of healthy female WT C57BL/6 mice (8-12-weck-old). To isolate CD8+ T-cells, spleens were mechanically disintegrated and filtered through a 70 um filter (Alex Red Ltd., Cat #SO SCS702), the red blood cells were lysed with the red blood lysis buffer (Biological industries, Cat #01-888-1B). Then, CD8+ T-cells were isolated using the EasySep Mouse CD8+T-cell isolation kit (Stemcell Technologies, Cat # 19853) according to the manufacturer's protocol. The isolation purity was measured by staining cells before and after isolation with CD8-PECY7 (BioLegend, Cat #100722, Clone 53-6.7) by flow cytometry.
Post-sorted MDSC subpopulations were co-cultured in complete RPMI with CD8+ T-cells that are activated with Dynabeads® Mouse T-Activator CD3/CD28 kit (Cat # 11456D; 12.5 μl/1×10^6 cells). After 48 hours, the activation beads were removed and cells were incubated with eBioscience Cell Stimulation Cocktail (Invitrogen, Cat #00-4970-93) for 3 hours and then also with BD GolgiStop™ Protein Transport Inhibitor (BD Biosciences, Cat #51-2092KZ) for the detection of IFN-γ. Intracellular staining of IFN-γ in CD8+ T-cells was achieved by using the BD Cytofix/Cytoperm™ Kit (BD Biosciences, Cat #554714) as stated in the manufacturer's instructions and then staining with IFN-γ-FITC (BioLegend, Cat #505806, Clone XMG1.2) and GranzymeB-FITC (BioLegend, Cat #372206, clone QA16A02).

[4] = MO-MDSCs exposed to CM of treated B16F10, 48 hours co-incubation

## CCCCCc1cc(O)c(C/C=C(\C)CCC=C(C)C)c(O)c1 [CBG, cannabigerol]
B16F10 tumors; nine injections
  Tumor weight on day 14 compared to vehicle: weighed significantly less
B16F10 tumors; nine injections from day 3, measured daily day 10 to 14
  Tumor volume compared to the vehicle-treated group: significantly lower in the CBG-treated group already at day 12
CSF-1 [1]
  efficiency of CSF-1 secretion reduction, comparison between treatments (discussion): reduce CSF-1 secretion more efficiently than the psychoactive THC
CSF-1 [2]
  CSF-1 secretion by A375 cells: reduced CSF-1 secretion
CSF-1 [3]
  CSF-1 protein levels in B16F10 cells: decreased CSF-1 protein levels
CD8+ T-cells; [4]
  CD8+ IFN-γ expression, co-culture with MO-MDSCs: restoration of CD8+ IFN-γ expression in a dose-dependent manner
  GrzB expression in CD8+ T-cells co-cultured with MO-MDSCs: trend of restored GrzB expression
CD8+ T-cells; PMN-MDSC exposed to CM of treated B16F10, 48 hours co-incubation
  GrzB expression in CD8+ T-cells co-cultured with PMN-MDSCs: trend of reduced GrzB expression
CD8+ T-cells; PMN-MDSCs exposed to CM of treated B16F10, 48 hours co-incubation
  CD8+ IFN-γ expression, co-culture with PMN-MDSCs: no significant changes with either of the treatments
